# From patent US7045339B2, “Electron donors for chlorinated solvent source area bioremediation” (SRP Technologies, Inc., priority 2002, dated 2006)
# Tests used:
# Type in all cases: physicochemical
# [1] = Surface tension of electron donor solutions (pendant drop method); settings: FIG. 5; for Change in surface tension: 0% ethyl lactate
# Excerpt: Based on the field results presented in Example 1, laboratory studies were preformed to confirm that the enhanced bioavailability of TCE observed in the field was due to co-solvent or surfactant behavior resulting from the use of high concentrations of sodium lactate. Two fundamental properties used to screen the co-solvent or surfactant properties of a solution are surface tension and interfacial tension. Surface tension measures the force per unit length along the interface between a liquid and air due to its tension. When a co-solvent or surfactant is present in an aqueous liquid at increasing concentrations, the surface tension of that liquid decreases. Interfacial tension is similar to surface tension except that it measures the force per unit length along the interface between two liquid phases arising from the surface free energy. The higher the interfacial tension between two liquids, the less likely one is to dissolve into the other, and the more difficult it is for one to be transported within the other. […]
# The laboratory study performed to confirm the co-solvent properties of the high concentration electron donor solution measured the surface tension of electron donor solutions at various concentrations. Next, interfacial tensions between the same electron donor solutions and nonaqueous phase TCE were measured. […] Surface and interfacial tension measurements were made using the pendant drop method (M. J. Rosen, ed., Structure/Performance Relationships in Surfactants, American Chemical Society, Washington D.C. 329 (1984); R. D. Bagnall & P. A. Arundel, The Profile Area of Pendant Drops, 82 J. Phys. Chem. 898 (1978)) coupled with real-time video imaging (M. D. Herd et al., Interfacial Tensions of Microbial Surfactants Determined by Real-Time Video Imaging of Pendant Drops, Proceedings paper number SPE/DOE 24206 513–519, SPE/DOE Eighth Symposium on Enhanced Oil Recovery, Tulsa, Okla. (1992)).
# [2] = Interfacial tension between electron donor solutions and nonaqueous phase TCE (pendant drop method)
# Excerpt: Based on the field results presented in Example 1, laboratory studies were preformed to confirm that the enhanced bioavailability of TCE observed in the field was due to co-solvent or surfactant behavior resulting from the use of high concentrations of sodium lactate. Two fundamental properties used to screen the co-solvent or surfactant properties of a solution are surface tension and interfacial tension. Surface tension measures the force per unit length along the interface between a liquid and air due to its tension. When a co-solvent or surfactant is present in an aqueous liquid at increasing concentrations, the surface tension of that liquid decreases. Interfacial tension is similar to surface tension except that it measures the force per unit length along the interface between two liquid phases arising from the surface free energy. The higher the interfacial tension between two liquids, the less likely one is to dissolve into the other, and the more difficult it is for one to be transported within the other. Thus, perhaps the most significant property of co-solvents and surfactants in the context of chlorinated solvent remediation is that they decrease the interfacial tension between the aqueous phase (groundwater) and the organic nonaqueous phase so that the solubility (or mobility for order-of-magnitude decreases) of the nonaqueous phase is enhanced.
# The laboratory study performed to confirm the co-solvent properties of the high concentration electron donor solution measured the surface tension of electron donor solutions at various concentrations. Next, interfacial tensions between the same electron donor solutions and nonaqueous phase TCE were measured. Two types of electron donor solutions were used. The first was different concentrations of sodium lactate, the electron donor used in Example 1. The second was various mixtures of sodium lactate and ethyl lactate. Ethyl lactate was chosen because it is a lactate-based compound that is used in some industries as a solvent. Thus it was believed ethyl lactate might further enhance the co-solvent behavior observed, while still acting as a suitable electron donor for bioremediation. It is believed that mixtures of sodium lactate and ethyl lactate have never before been used for bioremediation. Surface and interfacial tension measurements were made using the pendant drop method (M. J. Rosen, ed., Structure/Performance Relationships in Surfactants, American Chemical Society, Washington D.C. 329 (1984); R. D. Bagnall & P. A. Arundel, The Profile Area of Pendant Drops, 82 J. Phys. Chem. 898 (1978)) coupled with real-time video imaging (M. D. Herd et al., Interfacial Tensions of Microbial Surfactants Determined by Real-Time Video Imaging of Pendant Drops, Proceedings paper number SPE/DOE 24206 513–519, SPE/DOE Eighth Symposium on Enhanced Oil Recovery, Tulsa, Okla. (1992)).
# The data points in the figure represent the mean interfacial tension measurement based on at least eight independent measurements. The error bars show one standard deviation. It can be seen that as electron donor concentration increases, interfacial tension generally decreases. While sodium lactate had dramatic effects in the field (see FIG. 7), it appears that the other electron donor solutions tested might increase bioavailability to an even greater extent. […]
# [3] = Emulsion formation of electron donor in water; settings: very little mixing, unpublished data
# Excerpt: Oleyl lactyllic acid may be just such an electron donor (confidential proprietary information). It is essentially a combination of vegetable oil and lactic acid that was developed in the food processing industry a few decades ago as an emulsifier. […] Although it has an appearance and viscosity of vegetable oil, its nature as an emulsifier causes it to react very differently with water than pure vegetable oil. When vegetable oil is used in the field as electron donor, an emulsifier such as lecithin must be added to inject it into groundwater (25). The mixture is then mixed to achieve an emulsion of a few tenths of a percent to a few percent oil. The droplet size of the emulsion may be a critical factor in its transportability (26). In order to achieve small, easily transported droplets in the emulsion, intensive mixing is required. […] This observation is consistent with its intended use in food processing. […] While this may be the most promising example on the surface, other potential electron donors will be evaluated under this proposal.
compound,measurement,setting,value
CCOC(=O)C(C)O (stereo not drawn) [ethyl lactate],Effect on the solution's surface tension,[1]; 1% and 10% ethyl lactate added to sodium lactate solutions,pronounced effect
same,Tension compared with 30% sodium lactate solution with no ethyl lactate,[2]; 10% ethyl lactate mixture with sodium lactate,lower surface tensions than the 30% sodium lactate solution
same,Dependence of interfacial tension on sodium lactate concentration,"[2]; ethyl lactate / sodium lactate mixtures, FIG. 6",relatively insensitive to sodium lactate concentration
CC(O)C(=O)[O-].[Na+] (stereo not drawn) [sodium lactate],Change in surface tension,[1]; sodium lactate 0.01 to 7%,almost no change
same,Change in surface tension,[1]; sodium lactate 30 and 60%,dramatic decrease
same,Decrease of interfacial tension between nonaqueous TCE and the electron donor solution,[2]; high concentrations of sodium lactate,≤ 47%
same,Interfacial tension as percent of the value at 0.1% sodium lactate,"[2]; sodium lactate 30%, 0% ethyl lactate, FIG. 6",47%
same,Decrease of interfacial tension,"[2]; sodium lactate increased from 0.1 to 3%, 0% ethyl lactate, FIG. 6",about 26%
oleyl lactyllic acid,Emulsion formed in water,[3],forms a stable microemulsion
